Here are results for one compound from paper PMC11173382, “In Vitro Investigations into the Potential Drug Interactions of Pseudoginsenoside DQ Mediated by Cytochrome P450 and Human Drug Transporters” (Molecules, 2024).

One series has as its target T1, CYP2C8 (Homo sapiens, UniProt P10632).
T1 sequence (P10632 1-490): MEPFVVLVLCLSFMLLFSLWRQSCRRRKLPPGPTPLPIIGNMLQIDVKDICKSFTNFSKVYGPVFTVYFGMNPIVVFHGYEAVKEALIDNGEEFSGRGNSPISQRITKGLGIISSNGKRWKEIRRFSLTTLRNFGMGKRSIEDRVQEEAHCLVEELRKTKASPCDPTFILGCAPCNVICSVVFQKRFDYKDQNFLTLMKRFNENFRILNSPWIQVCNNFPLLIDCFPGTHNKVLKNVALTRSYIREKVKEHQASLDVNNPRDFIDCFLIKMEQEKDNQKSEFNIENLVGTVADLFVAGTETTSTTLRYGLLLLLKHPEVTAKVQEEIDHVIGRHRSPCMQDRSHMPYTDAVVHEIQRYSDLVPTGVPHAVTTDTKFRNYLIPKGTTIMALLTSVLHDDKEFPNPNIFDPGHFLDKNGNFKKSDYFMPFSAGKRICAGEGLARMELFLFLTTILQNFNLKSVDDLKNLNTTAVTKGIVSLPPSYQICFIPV
The series can be described thus: CYP450 inhibition assay in human liver microsomes, CYP2C8. In kind it is in vitro ADME. Particulars: HLM 0.1 mg/mL; probe amodiaquine 2 µM; 10 min. As to the method:
(§1) To evaluate the reliability and reproducibility of the CYP450 inhibition assay, we measured the inhibitory effects of selected positive control inhibitors of each CYP450 enzyme in human liver microsomes (HLM, Table 1, Figure 2). The potency of inhibition was estimated by observing the alteration in concentration of metabolites of CYP450 substrates (Table 1).
(§2) Reagents preparation. […] The stock solution of PDQ (10 mM) was prepared with methanol and further diluted to the range of 3 µM to 3 mM with methanol to ensure that the solvent of different PDQ samples contained the same amount (1%) of methanol.
(§3) The stock solutions of the positive control inhibitors and the probe substrates of CYP450 enzymes were prepared in methanol.
(§4) CYP450 inhibition assay. […] The assay was conducted in polypropylene 96-well plates (2.2 mL/well, Apricot Designs Inc., Covina, CA, USA).
(§5) The total volume of the reaction is 200 μL. […] The substrates and analytes were analyzed by LC-MS/MS (API4000, Applied Biosystems, Singapore; HPLC, Shimadzu, Japan). […]
(§6) Data analysis. […] The IC50 was determined by fitting the dependence of the relative remaining activity (y = Vi/V0) to the following three-parameter equation (Equation (1)). […]

The conditions of series [1]: cited from earlier work.
The target in a further series is T2, CYP2D6 (Homo sapiens, UniProt P10635).
T2 construct: tissue Corning 452117; host or cells: human liver microsomes
T2 sequence (P10635 whole entry): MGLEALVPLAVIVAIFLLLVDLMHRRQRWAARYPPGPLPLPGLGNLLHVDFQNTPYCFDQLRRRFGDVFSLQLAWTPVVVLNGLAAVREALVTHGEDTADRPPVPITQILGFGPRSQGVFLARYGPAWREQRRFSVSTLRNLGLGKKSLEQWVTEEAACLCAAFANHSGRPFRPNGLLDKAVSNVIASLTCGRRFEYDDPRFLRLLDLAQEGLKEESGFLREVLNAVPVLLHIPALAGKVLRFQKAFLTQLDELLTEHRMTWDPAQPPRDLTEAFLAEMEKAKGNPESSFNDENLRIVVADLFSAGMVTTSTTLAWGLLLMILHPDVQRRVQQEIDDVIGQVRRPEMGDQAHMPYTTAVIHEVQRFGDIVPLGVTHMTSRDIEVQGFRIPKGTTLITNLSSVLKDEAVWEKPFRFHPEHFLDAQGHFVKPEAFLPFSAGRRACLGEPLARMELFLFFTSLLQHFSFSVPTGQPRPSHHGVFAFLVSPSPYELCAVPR
The series can be described thus: CYP450 inhibition assay in human liver microsomes, CYP2D6. In kind it is in vitro ADME. Particulars: HLM 0.1 mg/mL; probe dextromethorphan 10 µM; 20 min. The method, then:
as §1, §2, §3, §4, §5, §6

The next series deals with T3, hOATP1B1 (Homo sapiens, UniProt Q9Y6L6).
T3 sequence (Q9Y6L6 1-691): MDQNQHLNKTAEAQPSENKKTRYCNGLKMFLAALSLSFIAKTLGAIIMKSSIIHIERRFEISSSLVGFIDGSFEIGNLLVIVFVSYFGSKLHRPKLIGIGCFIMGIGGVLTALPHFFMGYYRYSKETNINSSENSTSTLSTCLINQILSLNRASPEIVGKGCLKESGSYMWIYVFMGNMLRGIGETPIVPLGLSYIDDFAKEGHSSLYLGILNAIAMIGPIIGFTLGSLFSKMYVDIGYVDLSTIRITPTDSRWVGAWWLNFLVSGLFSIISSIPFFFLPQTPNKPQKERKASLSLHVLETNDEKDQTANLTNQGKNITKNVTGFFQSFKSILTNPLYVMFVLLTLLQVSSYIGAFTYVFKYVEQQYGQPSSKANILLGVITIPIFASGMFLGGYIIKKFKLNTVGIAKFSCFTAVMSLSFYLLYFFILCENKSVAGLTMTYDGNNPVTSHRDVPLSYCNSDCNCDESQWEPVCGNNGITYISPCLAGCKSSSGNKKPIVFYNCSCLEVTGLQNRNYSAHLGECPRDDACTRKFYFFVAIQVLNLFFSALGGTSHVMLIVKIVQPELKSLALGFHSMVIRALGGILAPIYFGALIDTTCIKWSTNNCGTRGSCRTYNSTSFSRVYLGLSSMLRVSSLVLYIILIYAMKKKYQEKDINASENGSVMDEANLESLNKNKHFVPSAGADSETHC
The series can be described thus: Substrates uptake assay, HEK293A-OATP1B1 cells (3H-ES). Particulars: HEK293A-OATP1B1; 3H-ES 0.1 µM; 2 min. It counts as in vitro ADME.

Consider `CC(C)(O)[C@@H]1CC[C@@](C)([C@H]2CC[C@]3(C)[C@@H]2[C@H](O)C[C@@H]2[C@@]4(C)CC[C@H](O)C(C)(C)[C@@H]4CC[C@]23C)O1` [PDQ, (20S,24S)-dammar-20,24-epoxy-3β, 12β, 25-triol], for which the IC50 at CYP2C8 was 16.4 µM. Further, the bioavailability in series [1] (PDQ in gattate pills) was 62.13%. For the same compound, in series [1] (rat plasma), the “biological half-time (t1/2)” value was 5.97 ± 0.43 h, the “concentration at peak (Cmax)” value is 3265.12 ± 700.26 ng/mL and the “time to peak (Tmax)” value is 4.0 ± 0.0 h. In series [1] (rats, effective oral dosage 15 mg/kg, no reference given, read-out: peak concentration (Cmax)), the Cmax is 6.5 µM. Also, the “cumulative amount excreted through feces” value in series [1] (rats, over 96 h) is given as 55.39%. Further, in series [1] (rats, single oral dose of 30.0 mg/kg), the “long-term accumulation in tissues” value was “no long-term accumulation”. The compound also showed an IC50 against CYP2D6 of 52 µM. In addition, at hOATP1B1, 13.1 µM corresponded to half-maximal inhibition (IC50).
